The test system of experiment [1] is T1, G6PDH, hepatopancreas, 24 h anoxic (low phosphate form).
T1 construct: gene G6PD; native enzyme in Sephadex G-50 filtered hepatopancreas extract of 24 h anoxic snails; low phosphate form, same gene product as P1; not purified for kinetics
As to the kind of experiment: spectrophotometric NADPH production at […] nm. It counts as biochemical, Littorina littorea. Conditions: pH 8.0, 50 mM Tris-HCl, 22 °C.

Experiment [2] relates to T2, G6PDH, hepatopancreas, aerobic control (high phosphate form).
T2 construct: gene G6PD; native enzyme in Sephadex G-50 filtered hepatopancreas extract of aerobic control snails (bought at Kowloon Market, Ottawa); serine-phosphorylated, high phosphate form; not purified for kinetics
As to the kind of experiment: spectrophotometric NADPH production at […] nm. It counts as biochemical, Littorina littorea. Conditions: pH 8.0, 50 mM Tris-HCl, 22 °C.

Molecules are shown by their SMILES.

With `O=P(O)(O)OC[C@H]1OC(O)[C@H](O)[C@@H](O)[C@@H]1O` (stereo partly shown) [G6P], the Km (commonly the concentration of substrate that gives half-maximal velocity) in experiment [1] (optimal NADP+ (1.0 mM)) is 60 ± 3 µM; in experiment [2] (optimal NADP+ (1.0 mM)), 97 ± 6 µM.
Take `NC(=O)c1ccc[n+]([C@@H]2O[C@H](COP(=O)(O)OP(=O)(O)OC[C@H]3O[C@@H](n4cnc5c(N)ncnc54)[C@H](OP(=O)(O)O)[C@@H]3O)[C@@H](O)[C@H]2O)c1` [NADP^+]: the figures for the Michaelis-Menten constant (Km) in experiment [1] (optimal G6P (4 mM)) and in experiment [2] (optimal G6P (4 mM)) were 115 ± 8 µM and 117 ± 6 µM, respectively.

The values above are taken from publication PMC3628605, “Glucose-6-phosphate dehydrogenase regulation in the hepatopancreas of the anoxia-tolerant marine mollusc, Littorina littorea” (PeerJ, 2013).
